Patent US20200078404A1, “COMBINATION OF A CELL THERAPY AND AN IMMUNOMODULATORY COMPOUND” (Juno Therapeutics, Inc., priority 2017, published 2020)

Tested on: anti-CD19 CAR+ T cells
Experiment: Serial restimulation of anti-CD19 CAR+ T cells with K562-CD19 cells: expansion
Assay type: cell-based, human
Conditions: 1 μM lenalidomide, 4 rounds of stimulation, 12 days, two donors
Experimental: The ability of anti-CD19 CAR+ T cells to expand ex vivo following repeated stimulations was assessed using methods substantially as described in Example 2. […] For each donor, cells were harvested every 3-5 days from each experimental condition in the wells and counted, and restimulated with new target cells using the same culture conditions after resetting cell number to initial seeding density for each round. A total of 4 rounds of stimulation during a 12 day culture period were carried out. For each round of stimulation, the total number of cells was determined, and the results were depicted as the fold-change of cell number after stimulation (FIG. 17A) or number of doublings compared to initial number (FIG. 17B).

## Nc1cccc2c1CN(C1CCC(=O)NC1=O)C2=O (stereo not shown) [lenalidomide, 3-(4-amino-1-oxo-1,3-dihydro-2H-isoindol-2-yl)piperidine-2,6-dione]
  cell expansion of anti-CD19 CAR+ T cells: no change or only a minor effect in cell expansion
